Calls of active or inactive are those of the source. The calls are words filed in the database; no cut-off is given here.
How the values were obtained:
PC-9 = test: Cytotoxicity against human PC9 cells expressing 746-750 sequence deleted EGFR assessed as cell viability at 0.001 to 10 uM after 96 hrs by cell titer-glo assay; type: functional, cell-based
cells [1] = conditions: Mus musculus, BaF3, 96 h
Description: Growth inhibition of mouse BA/F3 cells expressing EGFR Del1 mutant after 96 hrs by cell titer-glo assay

cells [2] = conditions: Mus musculus, BaF3, 96 h; remark: listed apart in the source
Description: Growth inhibition of mouse BA/F3 cells expressing EGFR Del5 mutant after 96 hrs by cell titer-glo assay

cells [3] = conditions: Mus musculus, BaF3, 96 h; remark: listed apart in the source
cells [4] = conditions: Mus musculus, BaF3, 96 h; remark: listed apart in the source
Description: Growth inhibition of mouse BA/F3 cells expressing EGFR Del3 and Thr790Met mutant after 96 hrs by cell titer-glo assay

NCI-H1975 = test: Cytotoxicity against human NCI-H1975 cells expressing EGFR T790M and L858R mutant at 0.001 to 10 uM after 96 hrs by cell titer-glo assay; type: functional, cell-based
cells [5] = conditions: Mus musculus, BaF3, 96 h; remark: listed apart in the source
Description: Growth inhibition of mouse BA/F3 cells expressing EGFR Del5 and Thr790Met mutant after 96 hrs by cell titer-glo assay

cells [6] = conditions: Mus musculus, BaF3, 96 h; remark: listed apart in the source
cells [7] = conditions: Mus musculus, BaF3, 96 h; remark: listed apart in the source
Description: Growth inhibition of mouse BA/F3 cells expressing EGFR Del3 mutant after 96 hrs by cell titer-glo assay

cells [8] = conditions: Mus musculus, BaF3, 96 h; remark: listed apart in the source
Description: Growth inhibition of mouse BA/F3 cells expressing EGFR Del1 and Thr790Met mutant after 96 hrs by cell titer-glo assay

[9] = molecular target: Epidermal growth factor receptor (Homo sapiens, UniProt P00533, L858R/T790M); test: Inhibition of EGFR Leu858Arg and Thr790Met mutant by HTRF assay; type: protein assay
Epidermal growth factor receptor (Homo sapiens, UniProt P00533, L858R/T790M), sequence (P00533 25-1210 T790M/L858R limits assumed): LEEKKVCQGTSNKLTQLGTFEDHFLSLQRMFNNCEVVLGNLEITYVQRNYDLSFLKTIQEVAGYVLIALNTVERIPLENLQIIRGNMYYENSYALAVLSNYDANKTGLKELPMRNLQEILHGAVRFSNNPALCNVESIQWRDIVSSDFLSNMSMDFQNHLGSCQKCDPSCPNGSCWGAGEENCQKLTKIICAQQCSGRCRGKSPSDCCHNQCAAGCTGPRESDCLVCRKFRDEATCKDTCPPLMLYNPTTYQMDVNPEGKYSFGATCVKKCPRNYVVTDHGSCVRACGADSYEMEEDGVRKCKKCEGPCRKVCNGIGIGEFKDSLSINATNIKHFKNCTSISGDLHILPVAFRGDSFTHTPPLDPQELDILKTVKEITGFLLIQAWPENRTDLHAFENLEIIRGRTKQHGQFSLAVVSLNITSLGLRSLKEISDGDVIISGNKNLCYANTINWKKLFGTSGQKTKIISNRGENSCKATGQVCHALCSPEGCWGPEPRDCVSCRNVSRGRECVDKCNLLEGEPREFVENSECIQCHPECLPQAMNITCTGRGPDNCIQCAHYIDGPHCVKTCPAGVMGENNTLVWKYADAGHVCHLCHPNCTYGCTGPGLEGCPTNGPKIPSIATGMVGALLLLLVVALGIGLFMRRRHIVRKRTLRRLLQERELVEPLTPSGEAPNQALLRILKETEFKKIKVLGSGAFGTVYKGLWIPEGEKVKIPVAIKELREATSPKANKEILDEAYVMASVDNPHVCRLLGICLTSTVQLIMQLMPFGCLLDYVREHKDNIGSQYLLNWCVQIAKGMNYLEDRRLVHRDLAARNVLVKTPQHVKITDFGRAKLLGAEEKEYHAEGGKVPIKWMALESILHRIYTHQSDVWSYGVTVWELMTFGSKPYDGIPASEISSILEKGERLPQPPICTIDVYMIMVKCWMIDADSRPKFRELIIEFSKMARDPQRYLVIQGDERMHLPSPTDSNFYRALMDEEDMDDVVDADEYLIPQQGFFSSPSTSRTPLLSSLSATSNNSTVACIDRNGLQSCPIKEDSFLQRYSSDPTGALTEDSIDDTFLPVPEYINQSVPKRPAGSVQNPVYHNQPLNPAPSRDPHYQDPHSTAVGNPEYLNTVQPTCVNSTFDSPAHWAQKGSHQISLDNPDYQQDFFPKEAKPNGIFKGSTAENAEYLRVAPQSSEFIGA

[10] = molecular target: Epidermal growth factor receptor (Homo sapiens, UniProt P00533, L858R); test: Inhibition of EGFR Leu858Arg mutant by HTRF assay; type: protein assay
Epidermal growth factor receptor (Homo sapiens, UniProt P00533, L858R), sequence (P00533 25-1210 L858R limits assumed): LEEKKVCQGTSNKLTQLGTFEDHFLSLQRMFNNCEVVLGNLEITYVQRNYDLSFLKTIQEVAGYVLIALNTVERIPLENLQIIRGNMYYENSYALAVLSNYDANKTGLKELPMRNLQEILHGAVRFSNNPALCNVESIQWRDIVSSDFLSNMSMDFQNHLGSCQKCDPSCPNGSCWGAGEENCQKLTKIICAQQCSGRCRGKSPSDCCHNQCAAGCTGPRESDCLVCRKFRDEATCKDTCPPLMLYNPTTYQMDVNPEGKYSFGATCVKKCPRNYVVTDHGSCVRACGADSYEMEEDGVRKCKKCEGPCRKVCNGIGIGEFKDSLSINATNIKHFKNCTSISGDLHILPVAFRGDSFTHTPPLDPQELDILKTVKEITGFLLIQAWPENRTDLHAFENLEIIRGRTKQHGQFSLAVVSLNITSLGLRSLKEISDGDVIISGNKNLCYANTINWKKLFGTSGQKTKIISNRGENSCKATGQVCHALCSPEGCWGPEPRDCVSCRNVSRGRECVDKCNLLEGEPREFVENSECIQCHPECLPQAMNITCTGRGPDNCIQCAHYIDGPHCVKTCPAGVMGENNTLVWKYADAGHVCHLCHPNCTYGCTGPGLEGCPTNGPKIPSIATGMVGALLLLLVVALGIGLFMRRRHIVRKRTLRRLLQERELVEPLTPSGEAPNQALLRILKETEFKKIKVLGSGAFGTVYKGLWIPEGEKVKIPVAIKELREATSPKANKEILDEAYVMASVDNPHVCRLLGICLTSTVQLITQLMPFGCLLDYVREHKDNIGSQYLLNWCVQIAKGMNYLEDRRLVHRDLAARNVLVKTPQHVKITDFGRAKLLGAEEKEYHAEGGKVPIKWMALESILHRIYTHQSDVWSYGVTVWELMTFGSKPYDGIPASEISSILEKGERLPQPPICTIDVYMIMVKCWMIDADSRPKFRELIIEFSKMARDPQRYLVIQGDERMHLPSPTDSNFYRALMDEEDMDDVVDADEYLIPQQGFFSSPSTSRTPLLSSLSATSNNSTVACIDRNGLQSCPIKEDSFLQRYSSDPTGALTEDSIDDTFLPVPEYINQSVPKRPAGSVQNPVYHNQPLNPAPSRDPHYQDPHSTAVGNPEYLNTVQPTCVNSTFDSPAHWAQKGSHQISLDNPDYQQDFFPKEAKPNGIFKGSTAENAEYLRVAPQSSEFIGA

[11] = molecular target: T1, Epidermal growth factor receptor (Homo sapiens, UniProt P00533); test: Inhibition of wild type EGFR by HTRF assay
T1 sequence (P00533 whole entry): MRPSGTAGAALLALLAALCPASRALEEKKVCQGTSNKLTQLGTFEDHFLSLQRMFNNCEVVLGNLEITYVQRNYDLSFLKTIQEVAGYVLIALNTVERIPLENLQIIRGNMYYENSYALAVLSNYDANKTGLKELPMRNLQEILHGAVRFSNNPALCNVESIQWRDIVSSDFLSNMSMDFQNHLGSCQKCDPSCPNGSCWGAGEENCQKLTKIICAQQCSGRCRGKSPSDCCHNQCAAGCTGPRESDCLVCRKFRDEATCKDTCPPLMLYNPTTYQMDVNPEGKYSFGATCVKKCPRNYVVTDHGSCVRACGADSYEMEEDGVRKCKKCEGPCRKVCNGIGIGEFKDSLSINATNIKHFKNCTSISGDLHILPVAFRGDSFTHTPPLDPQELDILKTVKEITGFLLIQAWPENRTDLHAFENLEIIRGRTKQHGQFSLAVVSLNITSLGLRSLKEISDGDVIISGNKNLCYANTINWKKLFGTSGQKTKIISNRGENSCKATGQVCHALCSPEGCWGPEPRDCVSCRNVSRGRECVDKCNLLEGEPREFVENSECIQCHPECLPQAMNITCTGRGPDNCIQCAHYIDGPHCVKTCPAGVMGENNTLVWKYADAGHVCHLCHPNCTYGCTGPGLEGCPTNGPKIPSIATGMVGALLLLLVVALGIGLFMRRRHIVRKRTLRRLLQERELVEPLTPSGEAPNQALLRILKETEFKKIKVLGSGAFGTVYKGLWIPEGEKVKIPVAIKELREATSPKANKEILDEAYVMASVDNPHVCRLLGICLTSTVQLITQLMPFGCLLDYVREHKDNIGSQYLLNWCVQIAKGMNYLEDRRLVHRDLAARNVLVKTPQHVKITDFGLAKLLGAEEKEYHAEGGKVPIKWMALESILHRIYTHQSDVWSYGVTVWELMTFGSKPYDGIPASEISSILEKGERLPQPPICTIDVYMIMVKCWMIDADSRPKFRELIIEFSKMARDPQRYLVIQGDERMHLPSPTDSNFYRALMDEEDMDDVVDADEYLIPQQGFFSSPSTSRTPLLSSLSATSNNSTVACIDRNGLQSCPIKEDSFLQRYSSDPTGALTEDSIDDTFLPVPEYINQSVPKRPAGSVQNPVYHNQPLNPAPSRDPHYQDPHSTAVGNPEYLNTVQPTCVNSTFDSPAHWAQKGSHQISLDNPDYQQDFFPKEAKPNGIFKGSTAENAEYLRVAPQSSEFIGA

[12] = molecular target: T1, Epidermal growth factor receptor; test: Inhibition of 746-750 sequence deleted EGFR autophosphorylation in human PC9 cells after 24 hrs by immunoblotting; type: cell-based; conditions: PC-9

SMILES | IC50 [9] [µM] | IC50 [10] [µM] | IC50 [11] [µM] | Activity [12] | Activity (PC-9) | GI50 (cells [1]) [µM] | GI50 (cells [2]) [µM] | GI50 (cells [3]) [µM] | GI50 (cells [4]) [µM] | Activity (NCI-H1975) | GI50 (cells [5]) [µM] | GI50 (cells [6]) [µM] | GI50 (cells [7]) [µM] | GI50 (cells [8]) [µM]
C#Cc1cccc(Nc2ncnc3cc(OCCOC)c(OCCOC)cc23)c1 [ERLOTINIB] | – | – | – | – | Active | < 0.5 | < 0.5 | > 5 | > 5 | Active | > 5 | < 0.5 | < 0.5 | > 5
CCC(=O)Nc1ccc2nccc(Nc3cccc(Br)c3)c2c1 | – | – | – | – | – | < 0.5 | > 0.5 | > 0.5 | > 0.5 | – | > 0.5 | > 0.5 | < 0.5 | > 0.5
C=CC(=O)Nc1ccc2ncnc(Nc3cccc(Br)c3)c2c1 | – | – | – | – | – | < 0.5 | < 0.5 | < 0.5 | < 0.5 | – | < 0.5 | < 0.5 | < 0.5 | > 0.5

Second part, led by results:

IC50 [9] [µM] | IC50 [10] [µM] | IC50 [11] [µM] | Activity [12] | SMILES | Activity (PC-9) | GI50 (cells [1]) [µM] | GI50 (cells [2]) [µM] | GI50 (cells [3]) [µM] | GI50 (cells [4]) [µM] | Activity (NCI-H1975) | GI50 (cells [5]) [µM] | GI50 (cells [6]) [µM] | GI50 (cells [7]) [µM] | GI50 (cells [8]) [µM]
0.14 | < 0.001 | < 0.001 | – | C#Cc1cccc(Nc2ncnc3cc(OC)c(OC)cc23)c1 | – | < 0.5 | < 0.5 | > 5 | > 5 | – | > 5 | < 0.5 | < 0.5 | > 0.5
1.5 | 0.004 | 0.019 | – | C#Cc1cccc(Nc2ccnc3cc(OC)c(OC)cc23)c1 | – | < 0.5 | < 0.5 | > 5 | > 5 | – | > 5 | < 0.5 | < 0.5 | > 5
1.5 | 0.014 | 0.03 | – | C#Cc1cccc(Nc2ccnc3cc(OCCOC)c(OCCOC)cc23)c1 | – | < 0.5 | > 5 | > 0.5 | > 0.5 | – | > 5 | < 0.5 | > 0.5 | > 0.5
0.0032 | < 0.001 | < 0.001 | Dose-dependent effect | C=CC(=O)Nc1ccc2nccc(Nc3cccc(Br)c3)c2c1 | Active | < 0.5 | < 0.5 | > 0.5 | > 0.5 | Active | > 0.5 | < 0.5 | < 0.5 | > 0.5
